Data as given in PubChem BioAssay (NCI).
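Each compound was tested at five concentrations against cells in 96-well plates for 48 hours. TGI: concentration producing complete growth inhibition.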

Columns and labels:
Experiment in all cases: growth of human tumour cells (NCI), 48 h
[1] = tested on: HCT-15 colon
[2] = tested on: OVCAR-5 ovarian
[3] = tested on: MDA-MB-435
[4] = tested on: SK-MEL-5 melanoma
[5] = tested on: TK-10 renal
[6] = tested on: NCI-H522 lung
[7] = tested on: EKVX NSCLC
[8] = tested on: HL-60(TB) leukemia
[9] = tested on: PC-3 prostate
[10] = tested on: SF-268 CNS
[11] = tested on: K-562 leukemia
[12] = tested on: SF-295 CNS
[13] = tested on: SNB-75 CNS
[14] = tested on: NCI-H460 lung
[15] = tested on: A498 renal
[16] = tested on: SF-539 CNS
[17] = tested on: M14 melanoma
[18] = tested on: DU-145 prostate
[19] = tested on: UO-31 renal
[20] = tested on: SK-OV-3 ovarian
[21] = tested on: 786-0 renal
[22] = tested on: MOLT-4 leukemia
[23] = tested on: HT29 colon
[24] = tested on: SW-620 colon
[25] = tested on: SK-MEL-28 melanoma
[26] = tested on: RXF 393 renal
[27] = tested on: SNB-19 CNS
[28] = tested on: OVCAR-4 ovarian
[29] = tested on: HCC-2998 colon
[30] = tested on: NCI-H226 lung
[31] = tested on: SN12C renal
[32] = tested on: CCRF-CEM leukemia
[33] = tested on: LOX IMVI melanoma
[34] = tested on: SR leukemia
[35] = tested on: NCI/ADR-RES ovarian
[36] = tested on: T-47D breast
[37] = tested on: ACHN renal
[38] = tested on: HCT-116 colon
[39] = tested on: NCI-H23 lung
[40] = tested on: UACC-257 melanoma
[41] = tested on: MALME-3M melanoma
[42] = tested on: MDA-MB-231 breast
[43] = tested on: SK-MEL-2 melanoma
[44] = tested on: U251 CNS
[45] = tested on: UACC-62 melanoma
[46] = tested on: HOP-62 NSCLC
[47] = tested on: MDA-N
[48] = tested on: HOP-92 NSCLC
[49] = tested on: RPMI-8226 leukemia
[50] = tested on: IGROV1 ovarian
[51] = tested on: OVCAR-3 ovarian
[52] = tested on: OVCAR-8 ovarian
[53] = tested on: COLO 205 colon
[54] = tested on: A549 NSCLC
[55] = tested on: HS 578T breast
[56] = tested on: KM12 colon
[57] = tested on: CAKI-1 renal
[58] = tested on: MCF7 breast

N#CSCC(Cl)=CCl (mixture of isomers)
TGI [1]: > 100 µM | TGI [2]: > 100 µM | TGI [3]: > 100 µM | TGI [4]: > 100 µM | TGI [5]: > 100 µM | TGI [6]: > 100 µM | TGI [7]: > 100 µM | TGI [8]: > 100 µM | TGI [9]: > 100 µM | TGI [10]: > 100 µM | TGI [11]: > 100 µM | TGI [12]: > 100 µM | TGI [13]: > 100 µM | TGI [14]: > 100 µM | TGI [15]: > 100 µM | TGI [16]: > 100 µM | TGI [17]: > 100 µM | TGI [18]: > 100 µM | TGI [19]: > 100 µM | TGI [20]: > 100 µM | TGI [21]: > 100 µM | TGI [22]: 97.5 µM | TGI [23]: > 100 µM | TGI [24]: > 100 µM | TGI [25]: > 100 µM | TGI [26]: > 100 µM | TGI [27]: > 100 µM | TGI [28]: > 100 µM | TGI [29]: > 100 µM | TGI [30]: > 100 µM | TGI [31]: > 100 µM | TGI [32]: > 100 µM | TGI [33]: 71.7 µM | TGI [34]: > 100 µM | TGI [35]: > 100 µM | TGI [36]: > 100 µM | TGI [37]: > 100 µM | TGI [38]: > 100 µM | TGI [39]: > 100 µM | TGI [40]: > 100 µM | TGI [41]: > 100 µM | TGI [42]: > 100 µM | TGI [43]: > 100 µM | TGI [44]: > 100 µM | TGI [45]: > 100 µM | TGI [46]: > 100 µM | TGI [47]: > 100 µM | TGI [48]: > 100 µM | TGI [49]: > 100 µM | TGI [50]: > 100 µM | TGI [51]: > 100 µM | TGI [52]: > 100 µM | TGI [53]: > 100 µM | TGI [54]: > 100 µM | TGI [55]: > 100 µM | TGI [56]: > 100 µM

Nn1c(C23CC4CC(CC(C4)C2)C3)n[nH]c1=S
TGI [1]: > 100 µM | TGI [2]: > 100 µM | TGI [3]: > 100 µM | TGI [4]: > 100 µM | TGI [5]: > 100 µM | TGI [6]: > 100 µM | TGI [7]: > 100 µM | TGI [8]: > 100 µM | TGI [9]: > 100 µM | TGI [10]: > 100 µM | TGI [11]: > 100 µM | TGI [12]: > 100 µM | TGI [13]: > 100 µM | TGI [14]: > 100 µM | TGI [15]: > 100 µM | TGI [16]: > 100 µM | TGI [17]: > 100 µM | TGI [18]: > 100 µM | TGI [19]: > 100 µM | TGI [20]: > 100 µM | TGI [21]: > 100 µM | TGI [22]: > 100 µM | TGI [23]: > 100 µM | TGI [24]: > 100 µM | TGI [25]: > 100 µM | TGI [26]: > 100 µM | TGI [27]: > 100 µM | TGI [28]: > 100 µM | TGI [29]: > 100 µM | TGI [30]: > 100 µM | TGI [31]: > 100 µM | TGI [32]: > 100 µM | TGI [33]: > 100 µM | TGI [34]: > 100 µM | TGI [57]: > 100 µM | TGI [35]: > 100 µM | TGI [36]: > 100 µM | TGI [37]: > 100 µM | TGI [38]: > 100 µM | TGI [39]: > 100 µM | TGI [41]: > 100 µM | TGI [42]: > 100 µM | TGI [43]: > 100 µM | TGI [44]: > 100 µM | TGI [45]: > 100 µM | TGI [46]: > 100 µM | TGI [47]: > 100 µM | TGI [48]: > 100 µM | TGI [49]: > 100 µM | TGI [50]: > 100 µM | TGI [51]: > 100 µM | TGI [53]: > 100 µM | TGI [54]: > 100 µM | TGI [55]: > 100 µM | TGI [56]: > 100 µM

CCCCCCCCCC[C@@H](OC(C)=O)[C@@H]1CC[C@@H]([C@@H]2CC[C@@H]([C@@H](O)CC#C/C=C/CCCCCCC[C@@]3(Sc4ccccc4)C[C@H](C)OC3=O)O2)O1
TGI [1]: > 10 µM | TGI [4]: > 10 µM | TGI [5]: > 10 µM | TGI [7]: > 10 µM | TGI [8]: > 10 µM | TGI [9]: > 10 µM | TGI [10]: > 10 µM | TGI [11]: > 10 µM | TGI [12]: > 10 µM | TGI [13]: > 10 µM | TGI [17]: > 10 µM | TGI [18]: > 10 µM | TGI [20]: > 10 µM | TGI [21]: > 10 µM | TGI [22]: > 10 µM | TGI [23]: > 10 µM | TGI [24]: > 10 µM | TGI [25]: > 10 µM | TGI [26]: > 10 µM | TGI [29]: > 10 µM | TGI [58]: > 10 µM | TGI [31]: > 10 µM | TGI [32]: > 10 µM | TGI [33]: > 10 µM | TGI [34]: > 10 µM | TGI [57]: > 10 µM | TGI [36]: > 10 µM | TGI [39]: > 10 µM | TGI [40]: > 10 µM | TGI [41]: > 10 µM | TGI [42]: > 10 µM | TGI [45]: > 10 µM | TGI [46]: > 10 µM | TGI [47]: > 10 µM | TGI [49]: > 10 µM | TGI [50]: > 10 µM | TGI [52]: > 10 µM | TGI [53]: > 10 µM | TGI [54]: > 10 µM | TGI [56]: > 10 µM
